Measurements taken from patent US7838493B2, “Acetylcholinesterase (ACHE)-derived peptide as an inducer of granulocytopoiesis, uses and methods thereof” (priority 2004, dated 2010).

Tested on: human CD34+ hematopoietic stem cells
Experiment: Ex vivo expansion of CD34+ cells in liquid culture, flow cytometric immunophenotyping
Assay type: cell-based
Protocol: Mean fluorescence intensity (MFI) served as a measure of AChE-R content in analyzed cells. When multiplied by the percent fractions of AChE-R-positive cells, the MFI values reflected the total content of AChE-R in the analyzed blood cell samples. Myeloid markers of maternal blood cells were analyzed by the following combination of monoclonal antibodies: anti-CD15-FITC (Dako, Glostrup Denmark), anti-CD33-PE (BD Bioscience, Palo Alto, Calif.), anti-CD45-PerCP (BD Bioscience, Palo Alto, Calif.) and anti-CD14-APC (Caltag, Burlingame, Calif.). Corresponding MFI values reflected the amount of receptor on the surface of granulocytes and monocytes. Expanded CD34+ cells were analyzed by 4-color flow cytometry with FITC-conjugated anti-CD15 and PE-conjugated anti-CD33, PerCP-conjugated anti-CD34, and APC-conjugated anti-CD38 (all antibodies purchased from BD Bioscience, Palo Alto, Calif.) using a FACSCalibur with CellQuest software (BD Bioscience, Palo Alto, Calif.). Relevant isotype control antibodies were used to detect non-specific background fluorescence. The total number of expanded cells for each lineage was calculated by multiplying their relative proportions by the number of viable cells in each culture.
PBAN (a negative control insect peptide) [Nijholt (2003) id ibid.] were also used for cell expansion. […] […] At 3-day intervals, cultures were supplemented with the same growth factor(s) and cells were counted by trypan blue exclusion and diluted to maintain cultures at concentrations no higher then 100,000 cells/mL [Pick M. et al. (2002) Exp. Hematol. 30:1079]. Cultured cells were injected into NOD/SCID mice at a concentration of 100,000 or 200,000 together with 100,000 unexpanded CD34+ cells per mouse as indicated.
Peptide controls (ASP40 and PBAN) were used to explore the specificity of this response.

[1] = Table 4b, cortisol (1.2 nM), day 14

Which “total number of cells” value (CD34+ cells, 2-week incubation, versus control) does the source give for `C[C@]12CCC(=O)C=C1CC[C@@H]1[C@@H]2[C@@H](O)C[C@@]2(C)[C@H]1CC[C@]2(O)C(=O)CO` [Cortisol, cortisol] here?
Its value is “not”.

And the Cell expansion index (Table 4a, cultured CD34+ cells, cortisol 1.2 μM, viable cells/ml at day 14 divided by seeded cells (50,000))?
Its Cell expansion index is 1.55 ± 0.07.

What about the Cell expansion index (Table 4b, typical CD34+ culture, cortisol (1.2 nM), day 14) of the same molecule?
Its Cell expansion index is 1.6.

What about the “CD33+ CD15+ Granulocytes” value [1] of the same molecule?
The value was 28.5 cell counts × 10^3.

What about the “CD33+ CD15− Immature myeloids” value [1] of the same molecule?
Its value is 13.0 cell counts × 10^3.

What about the “CD33− CD15+ Mature granulocytes” value [1] of the same molecule?
The value was 15.4 cell counts × 10^3.

What about the “CD34+ CD33+ Committed myeloids” value [1] of the same molecule?
Its value is 10.6 cell counts × 10^3.

What about the “CD34+ CD38+ Committed progenitors” value [1] of the same molecule?
The value was 11.0 cell counts × 10^3.
